According to patent US20210395313A1, “PEPTIDE PAC1 ANTAGONISTS” (AMGEN INC., priority 2017, published 2021):
Bridges are numbered along the chain shown (N, C = ends). Where no end group is shown, it is not given here.

Assays:
[1] = biological target: T1, rat PAC1 receptor (Rattus norvegicus, UniProt P32215); test: LANCE Ultra cAMP accumulation antagonist assay in RG-2 cells; type: cell-based;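 further: RG-2 rat glioma cells endogenously expressing PAC1, test peptide preincubated 30 min, then PAC1 agonist added at its EC80 for 15 min, cAMP accumulation read by LANCE Ultra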
T1 construct: SHSY-5Y (human neuroblastoma cell line) and RG-2 (rat glioma cell line) cells endogenously express human and rat PAC1 receptors, respectively; endogenous in cells; host or cells: RG-2 rat glioma cells
T1 sequence (P32215 20-523): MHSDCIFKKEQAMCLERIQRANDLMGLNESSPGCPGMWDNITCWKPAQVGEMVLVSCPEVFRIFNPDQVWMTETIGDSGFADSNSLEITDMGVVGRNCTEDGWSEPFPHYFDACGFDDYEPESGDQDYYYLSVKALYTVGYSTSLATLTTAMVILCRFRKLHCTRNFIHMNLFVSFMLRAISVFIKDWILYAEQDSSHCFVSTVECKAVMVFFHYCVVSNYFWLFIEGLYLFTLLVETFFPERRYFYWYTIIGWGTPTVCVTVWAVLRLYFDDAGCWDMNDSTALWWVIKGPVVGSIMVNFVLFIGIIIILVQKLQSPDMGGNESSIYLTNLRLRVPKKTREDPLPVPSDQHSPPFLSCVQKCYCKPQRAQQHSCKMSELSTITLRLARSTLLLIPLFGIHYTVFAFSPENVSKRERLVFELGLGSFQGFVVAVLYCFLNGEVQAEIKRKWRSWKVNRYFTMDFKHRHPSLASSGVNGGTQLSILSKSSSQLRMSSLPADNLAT

[2] = in vitro; conditions: rat, plasma
Description: (§1) To model degradation in blood, PAC1 peptides of the present application were incubated in vitro with rat plasma. The stability analysis was conducted in a manner similar to as previously described by Souverain et al. (J. of Pharmaceutical and Biomedical Analysis, 35 (2004) 913-920).
(§2) Briefly, PAC1 peptides were spiked into rat plasma and incubated at 37° C. for up to 6 hours. Employing the reverse stability technique for various time points, plasma samples were quenched by the addition of perchloric acid in water containing internal standard (IS) and vortexed undergoing protein precipitation extraction (PPE). Following the vortex mix, samples were centrifuged and the supernatant containing PAC1 peptide and IS was subsequently analyzed using a liquid chromatography mass-spectrometry (LC-MS) system (Sciex® API 5500). The peak area ratio of intact PAC1 peptide to IS was determined for each time point. Peptide stability was reported as a percentage of the peak area ratio at each time point relative to the peak are ratio of a baseline sample (pre-incubation).

[3] = biological target: T2, human PAC1 receptor (Homo sapiens, UniProt P41586); test: LANCE Ultra cAMP accumulation antagonist assay in SHSY-5Y cells; type: cell-based;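 further: inhibition of cAMP accumulation evoked by PAC1 agonist at its EC80 in SHSY-5Y cells endogenously expressing receptor, 30 min preincubation then 15 min agonist, TR-FRET readout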
T2 construct: SHSY-5Y (human neuroblastoma cell line) and RG-2 (rat glioma cell line) cells endogenously express human and rat PAC1 receptors, respectively; endogenous in cells; host or cells: SHSY-5Y human neuroblastoma cells
T2 sequence (P41586 21-468): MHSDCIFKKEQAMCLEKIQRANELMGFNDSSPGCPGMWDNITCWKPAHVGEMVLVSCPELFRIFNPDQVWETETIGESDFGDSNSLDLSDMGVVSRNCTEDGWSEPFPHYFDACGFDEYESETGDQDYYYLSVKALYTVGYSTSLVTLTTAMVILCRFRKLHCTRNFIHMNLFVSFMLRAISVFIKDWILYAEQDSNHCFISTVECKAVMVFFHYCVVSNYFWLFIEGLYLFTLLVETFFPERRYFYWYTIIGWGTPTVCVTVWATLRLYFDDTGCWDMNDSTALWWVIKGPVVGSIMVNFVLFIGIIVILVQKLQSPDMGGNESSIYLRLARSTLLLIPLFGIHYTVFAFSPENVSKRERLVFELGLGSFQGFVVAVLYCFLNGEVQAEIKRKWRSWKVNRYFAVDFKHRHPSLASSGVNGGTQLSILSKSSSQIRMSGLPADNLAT

[4] = rat plasma, 37° C., 0 h (baseline)
Description: as §1, §2

[5] = biological target: T3, PAC1 (Rattus norvegicus, UniProt P32215); test: Rat maxadilan-induced increase in blood flow (MIIBF) PD model, laser Doppler imaging; type: in vivo; conditions: for inhibition of MIIBF (dermal blood flow): single bolus i.v., lowest dose of 0.1 mg/kg, 5 min prior to maxadilan, 35 min post peptide treatment; for inhibition of maxadilan-induced increase in DBF: single bolus s.c., lowest dose of 0.3 mg/kg, 15 min prior to maxadilan, 45 min post peptide treatment
T3 construct: Naive male Sprague Dawley® rats aged 8-12 weeks at the time of the study were purchased from Charles River Laboratories; tissue Charles River Laboratories; host or cells: live male Sprague Dawley rats; dermal blood flow on abdominal skin
T3 sequence (P32215 20-523): T1 sequence (P32215 20-523)
Description: PAC1 peptide antagonists were also evaluated in an in vivo pharmacodynamic model—a model of maxadilan-induced increase in blood flow.
Naive male Sprague Dawley® rats aged 8-12 weeks at the time of the study were purchased from Charles River Laboratories. Animals were group-housed in non-sterile, ventilated micro-isolator housing in Amgen Assessment and Accreditation of Laboratory Animal Committee (AAALAC)-accredited facility. Animals had ad libitum access to pelleted feed (Harlan Teklad 2020X, Indianapolis, IN) and water (on-site generated reverse osmosis) via automatic watering system.
All PAC1 peptides were tested in a rat maxadilan-induced increase in blood flow (MIIBF) pharmacodynamic (PD) model with a laser Doppler imaging. A dosing solution of maxadilan (Bachem, H6734.0500) was prepared fresh daily by diluted maxadilan stock solution (0.5 mg/mL) in 1× PBS to the final concentration of 0.5 μg/mL. All tested peptides were prepared in 1× PBS at different concentrations depend on the dose required for the experiment and given in a single bolus i.v. or s.c. injection. A laser Doppler imager (LDI-2, Moor Instruments, Ltd, Wilmington, Del.) was used to measure dermal blood flow (DBF) on the shaved skin of the rat abdomen with a low-power laser beam generated by a 633 nm helium-neon bulb. The measurement resolution was 0.2 to 2 mm, with scanning distances between the instrument aperture and the tissue surface of 30 cm. In this report, DBF was measured and expressed as % change from baseline [100×(individual post-CAP flux-individual baseline flux)/individual baseline flux] and further calculated to % Inhibition to quantify the magnitude of drug effect [Mean of vehicle % change from BL−individual drug treated rat % change from BL)/Mean of vehicle % change from BL].
On the test day, following anesthetization with propofol, the rat's abdominal area was shaved and each animal was placed in a supine position on a temperature-controlled circulating warm-water pad to maintain a stable body temperature during the study. After a 10 to 15 minute stabilization period, a rubber O-ring (0.925 cm inner diameter, O-Rings West, Seattle, Wash.) was placed on the rat abdomen without directly positioning it over a visible blood vessel while the rat placed in a supine position on a temperature-controlled circulating warm-water pad to maintain a stable body temperature during the study. After placement of an O-ring on the selected area, a baseline (BL) DBF measurement was taken. After the BL scan, PAC1 peptides were administrated either 5 min for i.v., or 15 min for s.c. then followed by 20 μL (in 0.5 μg/mL) intradermal injection of maxadilan at the center of the O-ring. The post-maxadilan DBF was measured at 30 min and the post peptides time was 35 min for i.v. and 45 min for s.c. respectively. The O-ring serves as an area of interest in which the DBF will be analyzed within the O-ring.
All DBF results were expressed as the mean±SEM. A one-way ANOVA followed by Dunnett's Multiple Comparison Test (MCT) was used to assess the statistical significance of PAC1 peptides effects relative to the vehicle within the study. A p<0.05 was used to determine significance between any two groups.
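Wherever % Intact Peptide Remaining is given: peptides incubated in vitro in rat plasma at 37 °C up to 6 h, intact peptide quantified by LC-MS versus internal standard, expressed relative to pre-incubation baseline (100%).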

Molecule	IC50 [1]	remaining at 0.5 h [2]	remaining at 1 h [2]	remaining at 2 h [2]	remaining at 4 h [2]	remaining at 6 h [2]	IC50 [3]	% Intact Peptide Remaining [4]	inhibition of MIIBF (dermal blood flow) [5]	inhibition of maxadilan-induced increase in DBF [5]
CDATCQFRKAIDDCARQAHHSNVPGSVFKACMKQKKKEWKAGH (disulfide 1-5, 14-31) [SEQ ID NO 151]	0.01 to 1 nM	120%	87%	104%	112%	107%	0.01 to 1 nM	100%		
CDATCQFRKAIDDCHLLAWHANVPGSVFKACMKQKKKEFKAG-NH2 (disulfide 1-5, 14-31) [SEQ ID NO 140]		101%	91.4%	93.4%	107%	108%		100%		
SCDATCQFRKAIDDCQKQAHHSNVPGSVFKACMKQKKKEFKAG-NH2 (disulfide 2-6, 15-32) [SEQ ID NO 183]	0.01 to 1 nM						1 to 100 nM		statistically significant inhibition	
CDATCQFRKAIDDCVKQAHHSNVPGSVFKACMKQKKKEFKAG-NH2 (disulfide 1-5, 14-31) [SEQ ID NO 179]	0.01 to 1 nM						0.01 to 1 nM		statistically significant inhibition	
CC[C@H](C)[C@H](NC(=O)[C@H](C)NC(=O)[C@H](CCCCN)NC(=O)[C@H](CCCNC(=N)N)NC(=O)[C@H](Cc1ccccc1)NC(=O)[C@H](CCC(N)=O)NC(=O)[C@@H]1CSSC[C@H](N)C(=O)N[C@@H](CC(=O)O)C(=O)N[C@@H](C)C(=O)N[C@@H]([C@@H](C)O)C(=O)N1)C(=O)N[C@@H](CC(=O)O)C(=O)N[C@@H](CC(=O)O)C(=O)N[C@H]1CSSC[C@@H](C(=O)N[C@@H](CCSC)C(=O)N[C@@H](CCCCN)C(=O)N[C@@H](CCC(N)=O)C(=O)N[C@@H](CCCCN)C(=O)N[C@@H](CCCCN)C(=O)N[C@@H](CCCCN)C(=O)N[C@@H](CCC(=O)O)C(=O)N[C@@H](Cc2ccccc2)C(=O)N[C@@H](CCCCN)C(=O)N[C@@H](C)C(N)=O)NC(=O)C(C)(C)NC(=O)[C@H](CCCCN)NC(=O)[C@H](Cc2ccccc2)NC(=O)[C@H](C(C)C)NC(=O)[C@H](CO)NC(=O)CNC(=O)[C@@H]2CCCN2C(=O)[C@H](C(C)C)NC(=O)[C@H](CC(N)=O)NC(=O)[C@H](CO)NC(=O)[C@H](Cc2c[nH]cn2)NC(=O)[C@H](Cc2c[nH]cn2)NC(=O)[C@H](C)NC(=O)[C@H](CCC(N)=O)NC(=O)[C@H](CCCCN)NC(=O)[C@H](CCC(N)=O)NC1=O [SEQ ID NO 250]	0.01 to 1 nM						1 to 100 nM		statistically significant inhibition	
GCDATCQFRKAIDDCVRQAHHSNVPGSVFKACMKQKKKEWKAGH (disulfide 2-6, 15-32) [SEQ ID NO 88]	0.01 to 1 nM	81.4%	90.8%	84%	110%	100%	0.01 to 1 nM	100%		
CDATCQFRKAIDDCQKQAHHSNVPGSVFKACMKQKKKEFKAGY (disulfide 1-5, 14-31) [SEQ ID NO 164]		94.3%	113%	108%	106%	96.5%		100%		
CDATCQFRKAIDDCAKQAHHSNVPGSVFKACMKQKKKEFKAG-NH2 (disulfide 1-5, 14-31) [SEQ ID NO 180]	0.01 to 1 nM						0.01 to 1 nM		statistically significant inhibition	statistically significant inhibition
CDATCQFRKAIDDCYYYAMHSNVPGSVWKACMKQKKKEFKAG-NH2 (disulfide 1-5, 14-31) [SEQ ID NO 150]		117%	89.7%	92.1%	90.2%	92.8%		100%		
CC[C@H](C)[C@H](NC(=O)[C@H](C)NC(=O)[C@H](CCCCN)NC(=O)[C@H](CCCNC(=N)N)NC(=O)[C@H](Cc1ccccc1)NC(=O)[C@H](CCC(N)=O)NC(=O)[C@@H]1CSSC[C@H](N)C(=O)N[C@@H](CC(=O)O)C(=O)N[C@@H](C)C(=O)N[C@@H]([C@@H](C)O)C(=O)N1)C(=O)N[C@@H](CC(=O)O)C(=O)N[C@@H](CC(=O)O)C(=O)N[C@H]1CSSC[C@@H](C(=O)N[C@@H](CCSC)C(=O)N[C@@H](CCCCN)C(=O)N[C@@H](CCC(N)=O)C(=O)N[C@@H](CCCCN)C(=O)N[C@@H](CCCCN)C(=O)N[C@@H](CCCCN)C(=O)N[C@@H](CCC(=O)O)C(=O)N[C@@H](Cc2ccccc2)C(=O)N[C@@H](CCCCN)C(=O)N[C@@H](C)C(=O)NCC(N)=O)NC(=O)[C@H](C)NC(=O)[C@H](CCCCN)NC(=O)[C@H](Cc2ccccc2)NC(=O)[C@H](C(C)C)NC(=O)[C@H](CO)NC(=O)CNC(=O)[C@@H]2CCCN2C(=O)[C@H](C(C)C)NC(=O)[C@H](CC(N)=O)NC(=O)[C@H](CO)NC(=O)[C@H](Cc2c[nH]cn2)NC(=O)[C@H](Cc2c[nH]cn2)NC(=O)[C@H](C)NC(=O)[C@H](CCC(N)=O)NC(=O)[C@H](CCCCN)NC(=O)[C@H](CCC(N)=O)NC1=O [SEQ ID NO 233]	0.01 to 1 nM						1 to 100 nM		statistically significant inhibition	
CDATCQFRKAIDDCLLRAWHSNVPGSVFKACMKQKKKEFKAG-NH2 (disulfide 1-5, 14-31) [SEQ ID NO 85]	0.01 to 1 nM						0.01 to 1 nM			statistically significant inhibition
GCDATCQFRKAIDDCQKQAHHSNVPGSVFKACMKQKKKEFKAG-NH2 (disulfide 2-6, 15-32) [SEQ ID NO 181]	0.01 to 1 nM						1 to 100 nM		statistically significant inhibition	
CDATCQFRKAIDDCDRQAHHSNVPGSVFKACMKQKKKEWKAG-NH2 (disulfide 1-5, 14-31) [SEQ ID NO 163]	0.01 to 1 nM						0.01 to 1 nM			statistically significant inhibition
